Key:
Experiment in all cases: relative viability (nuclei count vs DMSO), 5 days (fraction); higher = more cells survive
[1] = compound: CC1=CC(=NN1)NC2=CC(=NC(=N2)/C=C/C3=CC=CC=C3)N4CCN(CC4)C + Cc1nc(NC(=O)N2CCC[C@H]2C(N)=O)sc1-c1ccnc(C(C)(C)C(F)(F)F)c1 [Alpelisib] (partner 2 µM)
Procedure, shortened: (§1)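 One day after seeding in 1536-well plates, lung cancer cell lines were dosed by pin tool. Dosing was either single-drug or a fixed anchor-drug dose plus five library-drug doses (not always all listed) in √10 steps. After 5 days, nuclei were stained in one fix-and-stain step and counted on 4× images, and relative viability is the nuclei count of treated wells over that of vehicle wells, given as the median of duplicate plates.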

Obatoclax + OSI-027 = compound: COC1=CC(c2cc3ccccc3[nH]2)=N/C1=C\c1[nH]c(C)cc1C [Obatoclax] + COc1cccc2cc(-c3nc([C@H]4CC[C@H](C(=O)O)CC4)n4ncnc(N)c34)[nH]c12 [OSI-027] (partner 0.5 µM)
Procedure, shortened: as §1

Obatoclax + Pictilisib = compound: COC1=CC(c2cc3ccccc3[nH]2)=N/C1=C\c1[nH]c(C)cc1C [Obatoclax] + CS(=O)(=O)N1CCN(Cc2cc3nc(-c4cccc5[nH]ncc45)nc(N4CCOCC4)c3s2)CC1 [Pictilisib] (partner 1 µM)
Procedure, shortened: as §1

Obatoclax + Vorinostat = compound: COC1=CC(c2cc3ccccc3[nH]2)=N/C1=C\c1[nH]c(C)cc1C [Obatoclax] + O=C(CCCCCCC(=O)Nc1ccccc1)NO [Vorinostat] (partner 1 µM)
Procedure, shortened: as §1

| Cell Line | relative viability ([1]; first compound 0.08 µM) | relative viability ([1]; first compound 0.253 µM) | relative viability ([1]; first compound 0.8 µM) | relative viability ([1]; first compound 2.53 µM) | relative viability ([1]; first compound 8 µM) | relative viability (Obatoclax + OSI-027; first compound 0.01 µM) | relative viability (Obatoclax + OSI-027; first compound 0.03162 µM) | relative viability (Obatoclax + OSI-027; first compound 0.3162 µM) | relative viability (Obatoclax + OSI-027; first compound 1 µM) | relative viability (Obatoclax + Pictilisib; first compound 0.01 µM) | relative viability (Obatoclax + Pictilisib; first compound 0.03162 µM) | relative viability (Obatoclax + Pictilisib; first compound 0.3162 µM) | relative viability (Obatoclax + Pictilisib; first compound 1 µM) | relative viability (Obatoclax + Vorinostat; first compound 0.01 µM) | relative viability (Obatoclax + Vorinostat; first compound 0.03162 µM) | relative viability (Obatoclax + Vorinostat; first compound 0.3162 µM) | relative viability (Obatoclax + Vorinostat; first compound 1 µM) | relative viability (Obatoclax + OSI-027; first compound 0.1 µM) | relative viability (Obatoclax + Pictilisib; first compound 0.1 µM) | relative viability (Obatoclax + Vorinostat; first compound 0.1 µM) |
| --- | --- | --- | --- | --- | --- | --- | --- | --- | --- | --- | --- | --- | --- | --- | --- | --- | --- | --- | --- | --- |
| NCI-H2405 | 0.687 | 0.6 | 0.983 | 0.414 | 0.148 | 0.65 | 0.688 | 0.643 | 0.727 | 0.508 | 0.461 | 0.497 | 0.392 | 1.05 | 1 | 0.984 | 0.981 |  |  |  |
| NCI-H3122 | 0.769 | 0.799 | 0.902 | 0.621 | 0.257 | 0.931 | 0.976 | 0.859 | 0.2 | 0.575 | 0.634 | 0.615 | 0.497 | 0.981 | 0.783 | 0.991 | 1.07 | 1.02 | 0.767 | 1.03 |
| PC-3 [JPC-3] | 1.08 | 1.15 | 1.04 | 1 | 0.78 | 0.808 | 0.728 | 0.731 | 0.752 | 0.794 | 0.676 | 0.685 | 0.834 | 0.835 | 0.555 | 0.527 | 0.439 | 0.791 | 0.819 | 0.767 |
| PC-14 | 0.915 | 0.85 | 0.322 | 0.749 | 0.124 | 0.729 | 0.834 | 0.519 | 0.0675 | 0.712 | 0.622 | 0.716 | 0.324 | 0.625 | 0.736 | 0.341 | 0.0549 | 0.67 | 0.681 | 0.696 |
| RERF-LC-KJ | 0.788 | 0.978 | 0.828 | 0.573 | 0.314 | 0.578 | 0.554 | 0.475 | 0.268 | 0.543 | 0.587 | 0.513 | 0.334 | 0.649 | 0.791 | 0.595 | 0.474 | 0.553 | 0.538 | 0.709 |
| SK-LU-1 | 1.05 | 0.972 | 0.636 | 0.223 | 0.113 | 0.366 | 0.315 | 0.205 | 0.166 | 0.616 | 0.559 | 0.364 | 0.256 | 0.833 | 0.827 | 0.671 | 0.441 | 0.273 | 0.46 | 0.723 |
| SK-MES-1 | 0.882 | 0.853 | 0.958 | 0.623 | 0.131 | 0.607 | 0.611 | 0.456 | 0.179 | 0.393 | 0.379 | 0.402 | 0.268 | 1.06 | 1.11 | 0.907 | 0.301 | 0.529 | 0.392 | 0.905 |
| SW 1573 | 0.886 | 1.07 | 0.785 | 0.499 | 0.124 | 0.612 | 0.559 | 0.219 | 0.115 | 0.466 | 0.539 | 0.44 | 0.519 | 0.791 | 1.04 | 0.429 | 0.169 | 0.662 | 0.506 | 0.792 |
| UMC-11 | 0.948 | 0.963 | 0.404 | 0.13 | 0.103 | 0.465 | 0.504 | 0.379 | 0.285 | 0.849 | 0.819 | 0.645 | 0.298 | 0.39 | 0.439 | 0.407 | 0.288 | 0.48 | 0.806 | 0.375 |
